ChEMBL document CHEMBL1201862, “PubChem BioAssay data set” (2004)
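Where inhibition never reached the appropriate level, the endpoint shown equals the highest concentration tested. Otherwise, values were interpolated linearly from a five-concentration, 48-hour dose response in 96-well plates. GI50 is the concentration that inhibits growth by half.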 Calls of active or inactive are those of the source. Cut-off read from the data, not from the text of the source: active = GI50 up to about 1.1 µM and inactive = higher.

Tests used:
Assay in all cases: growth of human tumour cells (NCI), 48 h
[1] = test system: UO-31
[2] = test system: A498
[3] = test system: SK-MEL-28
[4] = test system: SR
[5] = test system: 786-0
[6] = test system: NCI-H23
[7] = test system: SF-268
[8] = test system: LOX IMVI
[9] = test system: SW-620
[10] = test system: SF-539
[11] = test system: DU-145
[12] = test system: CAKI-1
[13] = test system: NCI-H226
[14] = test system: CCRF-CEM
[15] = test system: SF-295
[16] = test system: OVCAR-5
[17] = test system: Malme-3M
[18] = test system: HCC 2998

Compound	GI50 [1]	GI50 [2]	GI50 [3]	GI50 [4]	GI50 [5]	GI50 [6]	GI50 [7]	GI50 [8]	GI50 [9]	GI50 [10]	GI50 [11]	GI50 [12]	GI50 [13]	GI50 [14]	GI50 [15]	GI50 [16]	GI50 [17]	GI50 [18]
NCC1OC(n2cnc3c(=O)[nH]c(N)nc32)C(O)C1O (configuration not stated)	> 100 µM (inactive)	> 100 µM (inactive)	> 100 µM (inactive)	< 0.01 µM (active)	> 100 µM (inactive)	> 100 µM (inactive)	> 100 µM (inactive)	69.8 µM (inactive)	> 100 µM (inactive)	> 100 µM (inactive)	> 100 µM (inactive)	> 100 µM (inactive)	> 100 µM (inactive)	> 82.8 µM (inactive)	> 100 µM (inactive)	> 100 µM (inactive)	> 100 µM (inactive)	–
NC(=O)C1CCCNC1 (configuration not stated)	> 100 µM (inactive)	> 100 µM (inactive)	> 100 µM (inactive)	> 100 µM (inactive)	> 100 µM (inactive)	> 100 µM (inactive)	> 100 µM (inactive)	> 100 µM (inactive)	> 100 µM (inactive)	> 100 µM (inactive)	> 100 µM (inactive)	> 100 µM (inactive)	> 100 µM (inactive)	> 100 µM (inactive)	> 100 µM (inactive)	> 100 µM (inactive)	> 100 µM (inactive)	–
N#Cc1c(N)n(C2OC(CO)C(O)C2O)c2ncnc(N)c12 (configuration not stated)	0.0847 µM (active)	0.175 µM (active)	0.119 µM (active)	0.0147 µM (active)	0.0671 µM (active)	0.0292 µM (active)	0.0597 µM (active)	0.0165 µM (active)	0.0228 µM (active)	0.118 µM (active)	0.112 µM (active)	0.0463 µM (active)	0.0684 µM (active)	0.025 µM (active)	0.0711 µM (active)	0.0541 µM (active)	0.0367 µM (active)	–
NS(=O)(=O)c1ccc(Nc2c3ccccc3nc3c(C(=O)NCCCN(CCO)CCO)cccc23)cc1	> 100 µM (inactive)	47.9 µM (inactive)	22.4 µM (inactive)	12.8 µM (inactive)	19.3 µM (inactive)	23.4 µM (inactive)	21.8 µM (inactive)	18.8 µM (inactive)	21.5 µM (inactive)	–	29.9 µM (inactive)	> 100 µM (inactive)	–	8.41 µM (inactive)	36.2 µM (inactive)	24.1 µM (inactive)	20.4 µM (inactive)	17.7 µM (inactive)
COc1cc(C(c2cccc3ccccc23)N2C(=O)CCC2C(=O)O)cc(OC)c1OC (configuration not stated)	> 100 µM (inactive)	> 100 µM (inactive)	> 100 µM (inactive)	> 100 µM (inactive)	> 100 µM (inactive)	> 100 µM (inactive)	> 100 µM (inactive)	–	> 100 µM (inactive)	> 100 µM (inactive)	> 100 µM (inactive)	> 100 µM (inactive)	> 100 µM (inactive)	> 100 µM (inactive)	> 100 µM (inactive)	> 100 µM (inactive)	> 100 µM (inactive)	–
C=CC(C)(C)C(=C)C(=O)N(C)c1ccccc1I	> 100 µM (inactive)	> 100 µM (inactive)	> 100 µM (inactive)	> 100 µM (inactive)	> 100 µM (inactive)	84.1 µM (inactive)	> 100 µM (inactive)	> 100 µM (inactive)	> 100 µM (inactive)	–	> 100 µM (inactive)	> 100 µM (inactive)	95.7 µM (inactive)	> 100 µM (inactive)	> 100 µM (inactive)	> 100 µM (inactive)	–	> 100 µM (inactive)
Cc1nc(-c2ccccc2)c(C)n2c1nc1ccccc12	14.7 µM (inactive)	27.2 µM (inactive)	39.4 µM (inactive)	19.1 µM (inactive)	29 µM (inactive)	15.4 µM (inactive)	22.1 µM (inactive)	30.3 µM (inactive)	33 µM (inactive)	35.6 µM (inactive)	29.9 µM (inactive)	34.7 µM (inactive)	40.5 µM (inactive)	30.7 µM (inactive)	37.6 µM (inactive)	33.2 µM (inactive)	31.4 µM (inactive)	–
O=C1c2c(ccc3c2CCCC3)CC12Cc1ccc3c(c1C2=O)CCCC3	> 100 µM (inactive)	89.1 µM (inactive)	> 100 µM (inactive)	> 100 µM (inactive)	> 100 µM (inactive)	> 100 µM (inactive)	> 100 µM (inactive)	> 100 µM (inactive)	> 100 µM (inactive)	> 100 µM (inactive)	> 100 µM (inactive)	–	–	> 100 µM (inactive)	> 100 µM (inactive)	> 100 µM (inactive)	28.2 µM (inactive)	> 100 µM (inactive)
COc1cc2c3c(c1OC)C(=O)C(=O)C1=C3N(CCC1)CC2	41 µM (inactive)	30.3 µM (inactive)	36.9 µM (inactive)	18.5 µM (inactive)	43.4 µM (inactive)	20.6 µM (inactive)	13.2 µM (inactive)	26.7 µM (inactive)	32.4 µM (inactive)	29.6 µM (inactive)	38 µM (inactive)	32.4 µM (inactive)	–	20.3 µM (inactive)	23.5 µM (inactive)	52.2 µM (inactive)	–	36.7 µM (inactive)
COc1ccc(CCCCl)c(C2=NCCc3ccccc32)c1	66.5 µM (inactive)	> 100 µM (inactive)	> 100 µM (inactive)	28.1 µM (inactive)	89.5 µM (inactive)	11.1 µM (inactive)	27.5 µM (inactive)	–	70.8 µM (inactive)	35.8 µM (inactive)	> 100 µM (inactive)	> 100 µM (inactive)	31.7 µM (inactive)	53.6 µM (inactive)	32.8 µM (inactive)	> 100 µM (inactive)	–	23.4 µM (inactive)
CC(C)(C)NC(=O)C12C3C4C1C1C2C3C41C(=O)NC(C)(C)C (configuration not stated)	> 100 µM (inactive)	> 100 µM (inactive)	> 100 µM (inactive)	45.6 µM (inactive)	> 100 µM (inactive)	> 100 µM (inactive)	> 100 µM (inactive)	> 100 µM (inactive)	> 100 µM (inactive)	> 100 µM (inactive)	> 100 µM (inactive)	> 100 µM (inactive)	–	26.4 µM (inactive)	80 µM (inactive)	> 100 µM (inactive)	–	> 100 µM (inactive)
Nc1nc(O)c(Br)c(-c2cccc([N+](=O)[O-])c2)n1	> 62.1 µM (inactive)	> 100 µM (inactive)	> 100 µM (inactive)	64 µM (inactive)	> 100 µM (inactive)	40.9 µM (inactive)	> 82.4 µM (inactive)	> 100 µM (inactive)	> 100 µM (inactive)	> 58.1 µM (inactive)	> 100 µM (inactive)	58.5 µM (inactive)	49.9 µM (inactive)	> 100 µM (inactive)	> 50.4 µM (inactive)	> 69.8 µM (inactive)	–	> 100 µM (inactive)
